Experimental data from patent US8952024B2, “Herbicidal pyrimidone derivatives” (E I du Pont de Nemours and Company, priority 2009, dated 2015).

Legend:
Type in all cases: in vivo
[1] = tested on: pigweed (Amaranthus retroflexus); experiment: Test A pre-/postemergence plant response; conditions: for Pigweed plant response rating: visual injury, 0 to 100 scale (0 no effect, 100 complete control), approx. ten days
Text: (§1) Seeds of barnyardgrass (Echinochloa crus-galli), large crabgrass (Digitaria sanguinalis), giant foxtail (Setaria faberii), morningglory (Ipomoea spp.), pigweed (Amaranthus retroflexus), velvetleaf (Abutilon theophrasti), wheat (Triticum aestivum) and corn (Zea mays) were planted into a blend of loam soil and sand and treated preemergence with a directed soil spray using test chemicals formulated in a non-phytotoxic solvent mixture which included a surfactant. At the same time these species were also treated with postemergence applications of test compounds formulated in the same manner.
(§2) Plants ranged in height from two to ten cm and were in the one- to two-leaf stage for the postemergence treatment. Treated plants and untreated controls were maintained in a greenhouse for approximately ten days, after which time all treated plants were compared to untreated controls and visually evaluated for injury. Plant response ratings, summarized in Table A, are based on a 0 to 100 scale where 0 is no effect and 100 is complete control. A dash (-) response means no test result.

[2] = tested on: morningglory (Ipomoea spp.); experiment: Test A pre-/postemergence plant response; conditions: for Morningglory plant response rating: visual injury, 0 to 100 scale (0 no effect, 100 complete control), approx. ten days
Text: as §1, §2

[3] = tested on: giant foxtail (Setaria faberii); experiment: Test A pre-/postemergence plant response; conditions: for Foxtail, Giant plant response rating: visual injury, 0 to 100 scale (0 no effect, 100 complete control), approx. ten days
Text: as §1, §2

[4] = tested on: wheat (Triticum aestivum); experiment: Test A pre-/postemergence plant response; conditions: for Wheat plant response rating: visual injury, 0 to 100 scale (0 no effect, 100 complete control), approx. ten days
Text: as §1, §2

[5] = tested on: barnyardgrass (Echinochloa crus-galli); experiment: Test A pre-/postemergence plant response; conditions: for Barnyardgrass plant response rating: visual injury, 0 to 100 scale (0 no effect, 100 complete control), approx. ten days
Text: as §1, §2

[6] = tested on: large crabgrass (Digitaria sanguinalis); experiment: Test A pre-/postemergence plant response; conditions: for Crabgrass, Large plant response rating: visual injury, 0 to 100 scale (0 no effect, 100 complete control), approx. ten days
Text: as §1, §2

corn (Zea mays) = experiment: Test A pre-/postemergence plant response; conditions: for Corn plant response rating: visual injury, 0 to 100 scale (0 no effect, 100 complete control), approx. ten days
Text: as §1, §2

[7] = tested on: velvetleaf (Abutilon theophrasti); experiment: Test A pre-/postemergence plant response; conditions: for Velvetleaf plant response rating: visual injury, 0 to 100 scale (0 no effect, 100 complete control), approx. ten days
Text: as §1, §2

rice (Oryza sativa) = experiment: Test B flooded paddy test; conditions: for Plant response rating, Rice: Flood (flooded paddy test), 13 to 15 days; for Rice plant response rating: Flood, 31 g ai/ha, scale 0 to 100 (0 no effect, 100 complete control)
In short: (§3)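 Each compound is added to standing floodwater (3 cm above soil, maintained) in pots of 2-leaf-stage plants; greenhouse exposure lasts 13–15 d before visual comparison with controls on a 0–100 control scale.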

[8] = tested on: ducksalad (Heteranthera limosa); experiment: Test B flooded paddy test; conditions: for Plant response rating, Ducksalad: Flood (flooded paddy test), 13 to 15 days; for Ducksalad plant response rating: Flood, 31 g ai/ha, scale 0 to 100 (0 no effect, 100 complete control)
In short: as §3

[9] = tested on: umbrella sedge (Cyperus difformis); experiment: Test B flooded paddy test; conditions: for Plant response rating, Sedge, Umbrella: Flood (flooded paddy test), 13 to 15 days; for Sedge, Umbrella plant response rating: Flood, 31 g ai/ha, scale 0 to 100 (0 no effect, 100 complete control)
In short: as §3

[10] = tested on: barnyardgrass (Echinochloa crus-galli); experiment: Test B flooded paddy test; conditions: for Plant response rating, Barnyardgrass: Flood (flooded paddy test), 13 to 15 days; for Barnyardgrass plant response rating: Flood, 31 g ai/ha, scale 0 to 100 (0 no effect, 100 complete control)
In short: as §3

[11] = Postemergence, 125 g ai/ha, 0 to 100 scale where 0 is no effect and 100 is complete control
[12] = Preemergence, 125 g ai/ha, 0 to 100 scale, 0 = no effect, 100 = complete control
[13] = Preemergence, 500 g ai/ha, 0 to 100 scale, 0 = no effect, 100 = complete control
[14] = 125 g ai/ha, scale 0 to 100, 0 is no effect, 100 is complete control
[15] = 250 g ai/ha, flooded paddy test, visual rating on 0 to 100 scale (0 no effect, 100 complete control) after 13 to 15 days
[16] = 62 g ai/ha, scale of 0 to 100 where 0 is no effect and 100 is complete control

SMILES: CCc1ccc(-n2c(-c3cccc(Br)c3)ncc(C(=O)C3=C(O)CCCC3=O)c2=O)cc1 [Compound 177]
- Plant response rating, Pigweed [1, 11]: 100
- Pigweed plant response rating ([1]; Postemergence, 500 g ai/ha): 100
- Plant response rating, Pigweed [1, 12]: 0
- Plant response rating, Pigweed [1, 13]: 50
- Plant response rating, Morningglory [2, 11]: 0
- Morningglory plant response rating ([2]; Postemergence, 500 g ai/ha): 10
- Plant response rating, Morningglory [2, 12]: 0
- Plant response rating, Foxtail, Giant [3, 11]: 0
- Foxtail, Giant plant response rating ([3]; Postemergence, 500 g ai/ha): 40
- Plant response rating, Foxtail, Giant [3, 12]: 0
- Plant response rating, Foxtail, Giant [3, 13]: 20
- Plant response rating, Wheat [4, 11]: 0
- Wheat plant response rating ([4]; Postemergence, 500 g ai/ha): 0
- Plant response rating, Wheat [4, 12]: 0
- Plant response rating, Wheat [4, 13]: 0
- Plant response rating, Barnyardgrass [5, 11]: 80
- Barnyardgrass plant response rating ([5]; Postemergence, 500 g ai/ha): 100
- Plant response rating, Barnyardgrass [5, 12]: 0
- Plant response rating, Barnyardgrass [5, 13]: 10
- Plant response rating, Crabgrass, Large [6, 11]: 30
- Crabgrass, Large plant response rating ([6]; Postemergence, 500 g ai/ha): 70
- Plant response rating, Crabgrass, Large [6, 12]: 0
- Plant response rating, Crabgrass, Large [6, 13]: 10
- Plant response rating, Corn (corn (Zea mays); [11]): 0
- Corn plant response rating (corn (Zea mays); Postemergence, 500 g ai/ha): 0
- Plant response rating, Corn (corn (Zea mays); [12]): 0
- Plant response rating, Corn (corn (Zea mays); [13]): 20
- Plant response rating, Velvetleaf [7, 11]: 90
- Velvetleaf plant response rating ([7]; Postemergence, 500 g ai/ha): 100
- Plant response rating, Velvetleaf [7, 12]: 10
- Plant response rating, Velvetleaf [7, 13]: 40
- Plant response rating, Rice (rice (Oryza sativa); [14]): 20
- Rice plant response rating (rice (Oryza sativa)): 15
- Plant response rating, Ducksalad [8, 14]: 70
- Ducksalad plant response rating [8]: 30
- Plant response rating, Sedge, Umbrella [9, 14]: 75
- Sedge, Umbrella plant response rating [9]: 60
- Plant response rating, Barnyardgrass [10, 14]: 15
- Barnyardgrass plant response rating [10]: 0

SMILES: CCCn1c(-c2cccs2)ncc(C(=O)c2cnn(CC)c2O)c1=O [Compound 221]
- Plant response rating, Pigweed [1, 11]: 40
- Pigweed plant response rating ([1]; Postemergence, 500 g ai/ha): 70
- Plant response rating, Pigweed [1, 12]: 0
- Plant response rating, Pigweed [1, 13]: 60
- Plant response rating, Morningglory [2, 11]: 10
- Morningglory plant response rating ([2]; Postemergence, 500 g ai/ha): 20
- Plant response rating, Morningglory [2, 12]: 0
- Plant response rating, Morningglory [2, 13]: 0
- Plant response rating, Foxtail, Giant [3, 11]: 0
- Foxtail, Giant plant response rating ([3]; Postemergence, 500 g ai/ha): 10
- Plant response rating, Foxtail, Giant [3, 12]: 0
- Plant response rating, Foxtail, Giant [3, 13]: 10
- Plant response rating, Wheat [4, 11]: 0
- Wheat plant response rating ([4]; Postemergence, 500 g ai/ha): 0
- Plant response rating, Wheat [4, 12]: 0
- Plant response rating, Wheat [4, 13]: 0
- Plant response rating, Barnyardgrass [5, 11]: 10
- Barnyardgrass plant response rating ([5]; Postemergence, 500 g ai/ha): 20
- Plant response rating, Barnyardgrass [5, 12]: 0
- Plant response rating, Barnyardgrass [5, 13]: 0
- Plant response rating, Crabgrass, Large [6, 11]: 10
- Crabgrass, Large plant response rating ([6]; Postemergence, 500 g ai/ha): 20
- Plant response rating, Crabgrass, Large [6, 12]: 0
- Plant response rating, Crabgrass, Large [6, 13]: 10
- Plant response rating, Corn (corn (Zea mays); [11]): 0
- Corn plant response rating (corn (Zea mays); Postemergence, 500 g ai/ha): 20
- Plant response rating, Corn (corn (Zea mays); [12]): 0
- Plant response rating, Corn (corn (Zea mays); [13]): 0
- Plant response rating, Velvetleaf [7, 11]: 80
- Velvetleaf plant response rating ([7]; Postemergence, 500 g ai/ha): 80
- Plant response rating, Velvetleaf [7, 12]: 20
- Plant response rating, Velvetleaf [7, 13]: 30
- Plant response rating, Flood, Rice (rice (Oryza sativa); [15]): 15
- Plant response rating, Rice (rice (Oryza sativa); [16]): 0
- Plant response rating, Rice (rice (Oryza sativa); [14]): 0
- Rice plant response rating (rice (Oryza sativa)): 0
- Plant response rating, Flood, Ducksalad [8, 15]: 70
- Plant response rating, Ducksalad [8, 16]: 65
- Plant response rating, Ducksalad [8, 14]: 70
- Ducksalad plant response rating [8]: 20
- Plant response rating, Flood, Sedge, Umbrella [9, 15]: 75
- Plant response rating, Sedge, Umbrella [9, 16]: 60
- Plant response rating, Sedge, Umbrella [9, 14]: 75
- Sedge, Umbrella plant response rating [9]: 0
- Plant response rating, Flood, Barnyardgrass [10, 15]: 20
- Plant response rating, Barnyardgrass [10, 16]: 0
- Plant response rating, Barnyardgrass [10, 14]: 0
- Barnyardgrass plant response rating [10]: 0
